Assay results as given in patent publication US20030181390A1, “Amino acid conjugates providing for sustained systemic concentrations of GABA analogues” (priority 2002, published 2003).
Read-outs that look alike come from different tables or passages of the source.

How the values were obtained:
in vivo [1] = details: rat; for Cmax for prodrug (Cmax PD) in plasma: single oral dose of prodrug, 25 mg-equivalents of gabapentin per kg
Description: The pharmacokinetics of the prodrugs prepared in Examples 1 and 3 were examined in rats. […] Animals were fasted overnight prior to dosing and until 4 hours post-dosing. Serial blood samples were obtained over 24 hours following dosing and blood was processed for plasma by centrifugation. Plasma samples were stored at −80° C. until analyzed.
Plasma (50 μL) was precipitated by addition of […] of methanol and supernatant was injected directly onto the LC/MS/MS system. […] Following oral administration of gabapentin prodrugs, concentrations of prodrug and gabapentin in plasma were monitored over 24 hours.

[2] = Caco-2 homogenate S9 stability / release of gabapentin; assay type: in vitro ADME; details: incubation with Caco-2 homogenate for 1 hour
Description: The stability of aminoacyl-gabapentin conjugates was evaluated by incubating the conjugates in the various tissue and enzyme-containing preparations listed in Table 1 below.
Tissue homogenates and plasma samples were obtained from commercial sources (Pel-Freez Biologicals, Rogers, Ariz., and GenTest Corporation, Woburn, Mass.). Stability of prodrugs toward the specific enzyme aminopeptidase was also evaluated by incubation with the purified enzyme. Experimental conditions used for the in vitro studies were as follows. Each preparation was incubated with test compound at 37° C. for one hour. Aliquots (50 μL) were removed at 0, 30, and 60 min and quenched with 0.1% trifluoroacetic acid in acetonitrile. Samples were then centrifuged and analyzed for the presence of prodrug and released gabapentin by LC/MS/MS as described below.
Concentrations of prodrug or gabapentin in tissue extracts were determined by direct injection onto an API 2000 LC/MS/MS equipped with an Agilent 1100 binary pump and autosampler. Separation was achieved using a 3.5 μm Zorbax Ellipse XDB-C8 4.4×150 mm column heated to 45° C. during the analysis. The mobile phases were: 0.1% formic acid in water (A) and 0.1% formic acid in acetonitrile (B). The gradient condition was: 2% B for 0.5 min, increasing to 90% B in 2.0 min, maintained for 2.5 min and returning to 2% B for 2 min. A TurboIonSpray source was used on the API 2000. The analysis was performed in the positive ion mode and MRM transitions of 172.0/137.2 were used in the analysis of gabapentin (2). Ten microliters of the sample extracts were injected. Peaks were integrated using Analyst quantitation software. The method was linear for (2) over the concentration range 0.002 to 2.5 μg/mL respectively.
The stability of gabapentin-containing prodrugs to Caco-2 homogenates was evaluated as follows:
Caco-2 Homogenate S9 Stability: Caco-2 cells were grown for 21 days prior to harvesting. Culture medium was removed and cell monolayers were rinsed and scraped off into ice-cold 10 mM sodium phosphate/0.15 M potassium chloride, pH 7.4. Cells were lysed by sonication at 4° C. using a probe sonicator. Lysed cells were then transferred into 1.5 mL centrifuge vials and centrifuged at 9000 g for 20 min at 4° C. The resulting supernatant (Caco-2 cell homogenate S9 fraction) was aliquoted into 0.5 mL vials and stored at −80° C. until used.
For stability studies, prodrug (5 μM) was incubated in Caco-2 homogenate S9 fraction (0.5 mg protein per mL) for 60 min at 37° C. Concentrations of intact prodrug and released drug were determined at zero time and 60 minutes using LC/MS/MS.

[3] = monkey, sodium salt in water, 10 mg-equivalents of gabapentin per kg
[4] = rat; for fraction of prodrug absorbed intact following oral administration: oral and i.v. dosing of prodrug
[5] = rat, intracolonic, sodium salt, dose equivalent to 25 mg of gabapentin per kg
Description: Rats were obtained commercially and were pre-cannulated in the both the ascending colon and the jugular vein. Animals were conscious at the time of the experiment. All animals were fasted overnight and until 4 hours post-dosing. […] Blood samples (0.5 mL) were obtained from the jugular cannula at intervals over 8 hours and were quenched immediately by addition of acetonitrile/methanol to prevent further conversion of the prodrug.

[6] = monkey; for AUC for gabapentin (AUC G) / Cmax for gabapentin (Cmax G) / increase in gabapentin exposure (as measured by AUC) for a 7.5-fold increase in dose: oral; for increase in gabapentin exposure (as measured by AUC) for a 7.5-fold increase in dose: 10 to 75 mg-eq/kg
Description: (§6) The prodrug was administered orally to four adult male monkeys (approximate body weight of 6.5 kg) via an oral nasogastric tubeas solutions in water or PEG 400. The dose was 10 or 75 mg-equivalents of gabapentin per kg body weight. Animals were fasted overnight before the study and for 4 hours post-dosing. Blood samples (1.0 mL) were obtained via femoral or cephalic venipuncture at intervals over 48 hours after oral dosing. Blood was processed immediately for plasma and plasma was frozen at −80° C. until analyzed. […] Oral bioavailability was determined by comparison of area under the gabapentin concentration versus time curve (AUC) following oral administration of prodrug or intravenous administration of an equimolar dose of gabapentin hydrochloride.

PEPT1 = details: tested at 1 mM on oocytes expressing PEPT1; normalised to 1 mM glycyl-sarcosine
Description: (§1) Rat and human PEPT1 and PEPT2 expressing CHO cell lines were prepared as described in PCT Application WO01/20331. Gabapentin-containing dipeptides were evaluated for interaction with the peptide transporters using a radiolabeled substrate uptake assay in a competitive inhibition format, as described in PCT Application WO01/20331. Transport-induced currents were also measured in Xenopus oocytes transfected with rat and human PEPT1 and PEPT2.
(§2) (b) Analysis of Electrogenic Transport in Xenopus oocytes
(§3) RNA preparation: Rat and human PEPT1 and PEPT2 transporter cDNAs were subcloned into a modified pGEM plasmid that contains 5′ and 3′ untranslated sequences from the Xenopus β-actin gene. These sequences increase RNA stability and protein expression. Plasmid cDNA was linearized and used as template for in vitro transcription (Epicentre Technologies transcription kit, 4:1 methylated:non-methylated GTP).
(§4) Xenopus oocyte isolation. Xenopus laevis frogs were anesthetized by immersion in Tricaine ([…] in deionized water) for 15 min. […]
(§5) Electrophysiology measurements. Transport currents were measured 2-14 days after injection, using a standard two-electrode electrophysiology set-up (Geneclamp 500 amplifier, Digidata 1320/PCLAMP software and ADInstruments hardware and software were used for signal acquisition).

PEPT2 = details: tested at 1 mM on oocytes expressing PEPT2; normalised to 1 mM glycyl-sarcosine
Description: as §1, §2, §3, §4, §5

[7] = man, cited from earlier work
in vivo [8] = details: male, monkey, plasma, po
Description: as §6

[9] = male, Sprague-Dawley, plasma, po, 25 mg/kg

## N[C@@H](Cc1ccc(C(F)(F)F)cc1)C(=O)NCC1(CC(=O)O)CCCCC1 [1aa, L-4-Trifluoromethylphenylalanine-Gabapentin]
In vivo [1]
  Cmax for prodrug (Cmax PD) in plasma: 30000 ng/mL
[2]
  % of prodrug surviving intact: 97%

## N[C@@H](Cc1ccc(Br)cc1)C(=O)NCC1(CC(=O)O)CCCCC1 [1ah, L-4-Bromophenylalanine-Gabapentin]
[3]; oral
  AUC for gabapentin (AUC G): 29100 ± 3500 ng·h/mL
  AUC for prodrug (AUC PD): 18900 ± 6500 ng·h/mL
  Cmax for gabapentin (Cmax G): 3800 ± 1100 ng/mL
  CmaxPH (Cmax for prodrug): 14900 ± 5300 ng/mL
[3]
  oral bioavailability as gabapentin (F): 49.1±6.8%
[4]
  fraction of prodrug absorbed intact following oral administration: about 60%
[4]; oral dosing of prodrug
  oral bioavailability of gabapentin provided by prodrug: about 53%
In vivo [1]; oral 25 mg/kg (or 25 mg-equivalents of gabapentin per kg) vs intravenous gabapentin
  oral bioavailability (F) as gabapentin: 53%
In vivo [1]; single oral dose 25 mg/kg (or 25 mg-equivalents of gabapentin per kg)
  maximum plasma concentration (Cmax) of gabapentin: 6100 ng/mL
In vivo [1]
  Cmax for prodrug (Cmax PD) in plasma: 103000 ng/mL
[2]
  % of prodrug surviving intact: 79%
[5]
  area under the gabapentin plasma concentration vs. time curve relative to colonic administration of gabapentin itself: > 3 fold
  maximum plasma concentration of gabapentin relative to colonic administration of gabapentin itself: > 3 fold

## N#Cc1cccc(C[C@H](N)C(=O)NCC2(CC(=O)O)CCCCC2)c1 [1al, L-3-Cyanophenylalanine-Gabapentin]
In vivo [1]
  Cmax for prodrug (Cmax PD) in plasma: 600 ng/mL
[2]
  % of prodrug surviving intact: 46%

## N#Cc1ccc(C[C@H](N)C(=O)NCC2(CC(=O)O)CCCCC2)cc1 [1am, L-4-Cyanophenylalanine-Gabapentin]
In vivo [1]
  Cmax for prodrug (Cmax PD) in plasma: 22400 ng/mL
[2]
  % of prodrug surviving intact: 90%

## N[C@@H](Cc1cc(F)cc(F)c1)C(=O)NCC1(CC(=O)O)CCCCC1 [1ao, L-3,5-Difluorophenylalanine-Gabapentin]
In vivo [1]
  Cmax for prodrug (Cmax PD) in plasma: 2900 ng/mL
[2]
  % of prodrug surviving intact: 48%

## NC(Cc1ccc(F)cc1F)C(=O)NCC1(CC(=O)O)CCCCC1 [1ap, D, L-2,4-Difluorophenylalanine-Gabapentin]
In vivo [1]
  Cmax for prodrug (Cmax PD) in plasma: 278000 ng/mL
[2]
  % of prodrug surviving intact: 90%

## N[C@@H](CO)C(=O)NCC1(CC(=O)O)CCCCC1 [1ax, L-Serine-Gabapentin]
[6]; 10 mg-eq/kg
  oral bioavailability as gabapentin (F): 41.5±12.2%
  AUC for gabapentin (AUC G): 24700 ± 7300 ng·h/mL
  Cmax for gabapentin (Cmax G): 3700 ± 1100 ng/mL
[6]; 75 mg-eq/kg
  oral bioavailability as gabapentin (F): 28.1±1.1%
  AUC for gabapentin (AUC G): 125000 ± 5000 ng·h/mL
  Cmax for gabapentin (Cmax G): 14500 ± 1600 ng/mL
[6]
  increase in gabapentin exposure (as measured by AUC) for a 7.5-fold increase in dose: 5.1 fold
[4]
  fraction of prodrug absorbed intact following oral administration: 15-20%

## N[C@@H](Cc1cccc2ccccc12)C(=O)NCC1(CC(=O)O)CCCCC1 [1l, L-1-Naphthylalanine-Gabapentin]
In vivo [1]
  Cmax for prodrug (Cmax PD) in plasma: 500 ng/mL
[2]
  % of prodrug surviving intact: 29%

## CC(C)C[C@H](CNC(=O)[C@@H](N)Cc1ccc(Br)cc1)CC(=O)O [compound 5, L-4-Bromophenylalanine-Pregabalin]
PEPT1
  PEPT-specific current, % of Imax for Gly-Sar: at least 5 % of Imax for Gly-Sar
PEPT2
  PEPT-specific current, % of Imax for Gly-Sar: at least 5 % of Imax for Gly-Sar

## NCC1(CC(=O)O)CCCCC1 [gabapentin]
[6]
  increase in gabapentin exposure (as measured by AUC) for a 7.5-fold increase in dose: 3.2 fold
[7]; dose of 300 mg
  oral bioavailability: about 60%
[7]; dose of 1600 mg
  oral bioavailability: about 35%
In vivo [8]; 10 mg/kg
  AUC: 32100 ± 10400 ng·h/mL
  Cmax: 3700 ± 1600 ng/mL
  bioavailability: 53.9 ± 17.3%
In vivo [8]; 75 mg/kg
  AUC: 102000 ± 4900 ng·h/mL
  Cmax: 10800 ± 1300 ng/mL
  bioavailability: 22.9 ± 1.1%
In vivo [1]; [9]
  Cmax: 10300 ng/mL
  half-life: 2.4 ± 0.5 h

## L-Tyrosine-(O-2-Bromobenzyloxycarbonyl)-Gabapentin [4d]
[2]
  % of prodrug surviving intact: 3%
